The CheMixHub viscosity set

Test: xn = mol fraction of the nth substance listed

CCOC(=O)CC(=O)OCC + CCC(=O)CC
viscosity [mPa·s], 101 kPa
Details | x1 = 0.0736 | x1 = 0.1356 | x1 = 0.2458 | x1 = 0.3326 | x1 = 0.4124 | x1 = 0.5158 | x1 = 0.6256 | x1 = 0.7456 | x1 = 0.8626 | x1 = 0.9415
303.15 K | 0.488 | 0.535 | 0.633 | 0.725 | 0.814 | 0.94 | 1.094 | 1.273 | 1.475 | 1.627
308.15 K | 0.45 | 0.493 | 0.58 | 0.658 | 0.742 | 0.859 | 0.999 | 1.162 | 1.341 | 1.478
313.15 K | 0.437 | 0.477 | 0.56 | 0.633 | 0.708 | 0.812 | 0.938 | 1.089 | 1.25 | 1.375

CCOC(=O)CC(=O)OCC + O=C1CCCCC1
viscosity [mPa·s], 101 kPa
Details | x1 = 0.0713 | x1 = 0.1285 | x1 = 0.2155 | x1 = 0.3058 | x1 = 0.407 | x1 = 0.5085 | x1 = 0.6055 | x1 = 0.7125 | x1 = 0.8065 | x1 = 0.9118
303.15 K | 1.79 | 1.76 | 1.727 | 1.694 | 1.665 | 1.631 | 1.625 | 1.635 | 1.667 | 1.706
308.15 K | 1.623 | 1.591 | 1.553 | 1.515 | 1.487 | 1.458 | 1.454 | 1.465 | 1.497 | 1.533
313.15 K | 1.495 | 1.463 | 1.423 | 1.386 | 1.352 | 1.333 | 1.33 | 1.341 | 1.371 | 1.406

Cc1ccc(C(C)C)c(O)c1 + CCCCCCCCCCCCCC(=O)O
100 kPa, x2 = 0.25
Details | viscosity [mPa·s]
313.15 K | 8.69
318.15 K | 7.16
323.15 K | 5.98

CCN(CC)c1ccccc1 + Oc1ccccc1
viscosity [mPa·s], 101 kPa
Details | 298.15 K | 313.15 K | 323.15 K
x1 = 0.0654 | 8.65 | 4.49 | 3.1
x1 = 0.1184 | 8.76 | 4.49 | 3.13
x1 = 0.139 | 8.47 | 4.35 | 3
x1 = 0.1758 | 8.2 | 4.17 | 2.87
x1 = 0.2126 | 7.75 | 3.95 | 2.77
x1 = 0.2997 | 6.44 | 3.49 | 2.48
x1 = 0.3868 | 5.27 | 3 | 2.17
x1 = 0.5 | 4.11 | 2.51 | 1.93
x1 = 0.5955 | 3.27 | 2.13 | 1.65
x1 = 0.6559 | 2.86 | 1.95 | 1.52
x1 = 0.7162 | 2.63 | 1.8 | 1.37
x1 = 0.8502 | 2.17 | 1.48 | 1.22
